Source: patent publication US9682092B2, “Boron-containing small molecules as anti-inflammatory agents” (ANACOR PHARMACEUTICALS, INC., priority 2006, dated 2017)

Tests used:
PMA-induced ear swelling = assay: Topical, Phorbol Ester Mouse Ear Assay; format: in vivo, CD-1 (Crl.) derived male mice
Procedure: 5-(4-Cyanophenoxy)-1-hydroxy-2,1-dihydrobenzoxaborole and betamethasone were provided by Anacor Pharmaceuticals, Inc. Betamethasone is used to treat the itching, redness, dryness, crusting, scaling, inflammation, and discomfort of various skin conditions.
Test substances were each applied topically to the right ear of the test animal 30 minutes before and 15 minutes after Phorbol 12-Myristate 13-Acetate (PMA) was applied. The dosing volume was 20 μl/ear for solvent vehicle or 20 mg/ear for cream formulations.
Male CD-1 (Crl.) derived mice weighing 24±2 g were provided by BioLasco Taiwan (under Charles River Laboratories Technology Licensee). Space allocation for 10 animals was 29×18×13 cm. Mice were housed in APEC® cages. All animals were maintained in a controlled temperature (22° C.-23° C.) and humidity (70%-80%) environment with 12 hours light dark cycles for at least one week in MDS Pharma Services—Taiwan Laboratory prior to use. Free access to standard lab chow for mice (Lab Diet, Rodent Diet, PMI Nutrition International, USA) and tap water was granted. All aspects of this work including housing, experimentation and disposal of animals were performed in general accordance with the Guide for the Care and Use of Laboratory Animals (National Academy Press, Washington, D.C., 1996).
Groups of 5 CD-1 (Crl.) derived male mice weighing 24±2 g were used. PMA ([…] in 20 μl of Acetone) was applied topically to the anterior and posterior surfaces of the right ear to each animal. Vehicle (Ethanol:Acetone/1:1, 20 μL/ear or cream, 20 mg/ear) and test substances including 5-(4-cyanophenoxy)-1-hydroxy-2,1-dihydrobenzoxaborole and betamethasone were each applied 30 minutes before and 15 minutes after PMA application. […] Ear swelling was then measured by a Dyer model micrometer gauge at 6 hours after PMA application as an index of inflammation. Percent inhibition was calculated according to the formula: ([Ic−It]/Ic)×100%, where Ic and It refer to increase of ear thickness (mm) in control and treated mice, respectively. […]

| SMILES | melting point [°C] | further results |
| --- | --- | --- |
| N#Cc1ccc(Oc2ccc3c(c2)COB3O)cc1 [C17, 5-(4-Cyanophenoxy)-1,3-dihydro-1-hydroxy-2,1-benzoxaborole] |  | Percent inhibition of ear swelling induced by topical phorbol ester (PMA-induced ear swelling; 0.2 mg/ear×2 topical, 30 min before and 15 min after PMA, ear swelling measured 6 hours after PMA): 22%; inhibition of the PMA-induced ear swelling (in words) (PMA-induced ear swelling; 1 mg/ear×2, versus vehicle or cream placebo control): significant inhibition |
| CSc1ccc(Sc2ccc3c(c2)B(O)OC3)cc1 [C94, 6-(4-(methylthio)phenylthio)benzo[c][1,2]oxaborol-1(3H)-ol] | 117 to 120 |  |
| Cc1ccc(Sc2ccc3c(c2)B(O)OC3)cc1 [C95, 6-(p-tolylthio)benzo[c][1,2]oxaborol-1(3H)-ol] | 139 to 144 |  |
| N#Cc1cccc(COc2ccc3c(c2)COB3O)c1 [C96, 3-((1-hydroxy-1,3-dihydrobenzo[c][1,2]oxaborol-5-yloxy)methyl)benzonitrile] | 147 to 150 |  |
| N#Cc1ccc(Oc2cccc(B(O)O)c2)cc1 [C98, 3-(4-Cyanophenoxy)phenylboronic acid] | 153 to 162 |  |
| Cc1cc(Oc2ccc(C#N)cc2)ccc1B(O)O [C99, 4-(4-Cyanophenoxy)-2-Methylphenylboronic acid] | 161 to 165 |  |
| C[C@@H]1C[C@H]2[C@@H]3CCC4=CC(=O)C=C[C@]4(C)[C@@]3(F)[C@@H](O)C[C@]2(C)[C@@]1(O)C(=O)CO [dexamethasone, Dexamethasone, reference compound] |  | decrease in the ear swelling relative to the vehicle (Ethanol:Acetone/1:1)-treated group (PMA-induced ear swelling; 3 mg/ear topical, positive control, 6 hours after PMA): 72% |
